In US9371275B2, “5-aminolevulinic acid prodrugs for use in photodynamic therapy and photodynamic diagnosis” (Swedish Pharma AB, priority 2008, dated 2016):

What was measured:
human living cells = assay: PpIX synthesis in human living cells, spectrofluorometric measurements (fluorescence at 632 nm); type: cell-based
Description: Using the spectrum of PpIX as reference (FIG. 2), a comparison between PpIX synthesis by the oxime compound according to the invention with that based on the methyl ester of 5ALA currently in clinical use (MetVix), was made on human living cells using spectrofluorometric measurements.
Diamonds=5ALA methyl ester (MetVix); Squares=5ALA oxime 20% w/w in Essex™ cream.

[1] = after application of 5ALA or known derivatives; cited from earlier work
[2] = after intravenous injection; very slow clearance rate from the body; cited from earlier work

**Q.** What does the source list for NCC(CCC(=O)O)=NO [5-ALA oxime]?
**A.** production of PpIX (human living cells): capable of producing PpIX; time for which elevated levels of PpIX are retained after application (human living cells; 5ALA oxime 20% w/w in Essex cream, human cells, fluorescence at 632 nm): at least 6 h; concentration of PpIX generated compared with 5ALA methyl ester (MetVix) (human living cells; 3 h after application, 5-ALA oxime 20% (w/w) in Essex cream, human cells): higher concentration of PpIX

**Q.** With NCC(=O)CCC(=O)O [5ALA, 5-aminolevulinic acid] as the compound, how does the “time after application at which PpIX concentration reaches optimal therapeutic window” value [1] read?
**A.** The value was 2 to 4 h.

**Q.** What about the “time in which PpIX concentration decays to normal background levels” value [1] of the same compound?
**A.** The value was 36 to 48 h.

**Q.** Which “duration of patient hypersensitization” value [2] does the source give for Oc1cccc(-c2c3nc(c(-c4cccc(O)c4)c4ccc([nH]4)c(-c4cccc(O)c4)c4nc(c(-c5cccc(O)c5)c5ccc2[nH]5)CC4)C=C3)c1 [Foscan, temoporfin] here?
**A.** The value was “up to 3 weeks”.
